In general, IC50 refers to the concentration needed to halve the response being measured. For orientation: AUC means the area under the concentration-time curve, a measure of exposure.

This note sets out measurements from patent US6972343B1, “Quaternary bis-ammonium salt precursors and their uses as prodrugs having an antiparasitic activity” (CNRS, priority 1999, dated 2005).

In data set [1] the test system is P. falciparum. Description: Antimalarial activity against P. falciparum in vitro (Desjardins [3H]hypoxanthine incorporation). It is filed as cell-based. The following applies: in vitro growth of P. falciparum, [3H]hypoxanthine incorporation, 48 hours test, read-out: IC50. As for the experimental part:
FIG. 1, the anti-malarial action of a precursor of thiazolium (designated by TE4c in the examples), and corresponding thiazolium (T4) as a function of the concentration of drug, according to the Desjardins test, (Desjardins R. E. et al, Antimicrob. Agents Chemother. 1979, 16, 710-718),
The IC50 measurements are determined vis-à-vis P. falciparum according to the Desjardins method in which the incorporation of [^3H] hypoxanthine (FIG. 1) into the nucleic acids is an indicator of cell viability. In each case, optical microscopy controls are carried out.
(§1) The IC50 is the concentration which inhibits by 50% the in vitro growth of P. falciparum: the LD50 is the lethal dose corresponding to the death of 50% of the mice and the ED50 is the effective dose for inhibiting by 50% the in vivo growth of P. vinckei according to a 4-day suppressive test, TI corresponds to the therapeutic index, TI=LD50 (semi-chronic)/ED50; ip: intraperitoneal administration; po: per os.

Data set [2] in a line: Tolerance in the mouse: LD50 after acute or semi-chronic administration. It is filed as in vivo. The settings on record: for Oral absorption index (LD50 po/LD50 ip ratio, acute): acute administration; for In vivo LD50 (mg/kg) (mouse) acute / LD50: single dose; for In vivo LD50 (mg/kg) (mouse) semi-chronic / LD50 at 4 days: twice per day for 4 consecutive days; for LD50 at 4 days / LD50: in vivo.
From the text: (§2) B) Antimalarial Activity in vivo Against a Mouse Infected by P. vinckei and Tolerance After Administration in Acute or Semi-chronic Conditions.
as §1

Data set [3] concerns P. vinckei. Description: animal or person. It is filed as in vivo. The following applies: mouse, 4-day suppressive test, TE4c in 50/50 PEG/castor oil; for ED50: Plasmodium vinckei, 96 h, read-out: In vivo ED50 (mg/kg) (P. vinckei).
From the text: as §2, §1

Data set [4] is described as follows: Pharmacokinetics / serum level in the mouse (ex vivo bio-test on P. falciparum). As to the method:
The results of the pharmacokinetic parameters after administration by intraperitoneal or oral route in a mouse for a prodrug of disulphice type (TS3b) and a prodrug of thioester type (TE4c) are presented hereafter.
(§3) For determination of the serum level, bio-tests are used ex vivo: briefly, the medicament is administered to the animal, then repeated blood samples are taken. The sera are decomplemented for 30 minutes at 56° C. The active metabolite content is then determined by incubation of different concentrations (dichotomic dilution) of each serum, in the presence of suspensions of erythrocytes infected by P. falciparum, according to the DESJARDINS method with [^3H] hypoxanthine.
The results are expressed in IS50, which corresponds to the percentage of serum (containing an active metabolite) capable of inhibiting the growth of P. falciparum by 50%.
This value is then converted into a serum concentration, (usually expressed in ng/ml) by testing the active compound directly (without passing through the animal), on the same suspension infected by P. falciparum and by determining its IC50 value (in ng/ml) [serum level=IC50] (in ng/ml)×100/IS50 (in %)].
(§4) The results are expressed as the log (serum level of medicaments), as a function of time, which allows the evaluation of the half-time for distribution to the serum compartment t1/2(d); the half-time for elimination of the serum compartment (t1/2(e)); of C0), corresponding to the serum level originally extrapolated during the elimination phase; the AUC (which indicates the quantity of drug circulating in the blood stream); and the relative bio-availability in the oral route administration method, as against the intraperitoneal route method [AUC (po)/AUC (ip)] which is an indicator of the degree of absorption by oral route.

Data set [5] deals with P. falciparum (FVO strain). Kind of data set: Antimalarial activity against Plasmodium falciparum in the Aotus monkey. It is filed as in vivo. The settings on record: Aotus monkeys. As to the method: 3 Aotus monkeys were infected with P. falciparum (FVO strain). When the blood parasitemia reached 1% (2 monkeys) or 6% (1 monkey), treatment by intramuscular route at a rate of 2 injections per day of TE4c (2mg/kg), for 8 days, was carried out.

Data set [6] can be described thus: Pharmacokinetics in the monkey (ex vivo bio-test serum level). The following applies: Macaca fascicularis, intramuscular 4 mg/kg. As to the method:
as §3
The results are expressed in IS50, which corresponds to the percentage of serum (containing an active metabolite) capable of inhibiting the growth of P. falciparum by 50%. […]
as §4, with “route. […]” for “route.”

Data set [7] deals with Babesia divergens. Description: Antibabesiasis activity in vitro against Babesia divergens. It is filed as cell-based. As to the method:
(§5) The products TE4c, TS3b and P1 were also evaluated in vitro for their activities against Babesia divergens and B. canis.

Data set [8] has as its system B. canis. Kind of data set: Antibabesiasis activity in vitro against B. canis. It is filed as cell-based. As for the experimental part:
as §5

Setting [9] is: 3 mg/kg ip and 50 mg/kg po, both routes.
Setting [10] is: ip 3 mg/kg TE4c, active metabolite considered to be T4.
[11] abbreviates: oral 50 mg/kg TE4c, active metabolite considered to be T4.
The mark [12] stands for this setting: oral route, higher dose series (150 mg/kg po).

Read-outs that look alike come from different tables or passages of the source. Marks after values point to notes of the source that are not given here. Where only a bound is given, the exact number is not on record here.

On to `COCCC(SC(=O)c1ccccc1)=C(C)N(C=O)CCCCCCCCCCCCN(C=O)C(C)=C(CCOC)SC(=O)c1ccccc1` [TE4c, N,N′-diformyl-N,N′-di[1-methyl-2-S-thiobenzoyl-4-methoxybut-1-enyl]-1,12-diaminododecane], for which the IC50 in data set [1] turned out to be 2 nM. Also, the “Oral absorption index (LD50 po/LD50 ip ratio, acute)” value in data set [2] is listed as “˜10”. The “In vivo LD50 (mg/kg) (mouse) acute” value is 100 mg/kg in data set [2] (ip) and “˜1000 mg/kg” in data set [2] (po). Moreover, the “In vivo LD50 (mg/kg) (mouse) semi-chronic” value in data set [2] (ip, TE4c value corresponds to death of only 25% of the mice) is reported as “≧30^d mg/kg”; in data set [2] (po), “˜300 mg/kg”. Further, the “In vivo ED50 (mg/kg) (P. vinckei)” value in data set [3] (ip) was 1 mg/kg. For the same molecule, in data set [4] (setting [9]), the “time of first serum level peak” value is “in less than two hours”. Moreover, the “time of second serum level peak” value in data set [4] (setting [9]) is on record as “around 15 hours”; in data set [4] (higher doses 10 mg/kg ip and 150 mg/kg po), “around 23 hours”. For the same molecule, the “relative bioavailability [AUC (po)/AUC (ip)]” value in data set [4] (50 mg/kg po vs 3 mg/kg ip) amounted to 5%. In addition, the AUC was determined as 3300 ng·h/mL in data set [4] (setting [10]) and 2700 ng·h/mL in data set [4] (setting [11]). In addition, the figures for the C0 in data set [4] (setting [10]), in data set [4] (setting [11]) and in data set [4] (setting [12]) were 180 ng/mL, 130 ng/mL and 1000 ng/mL, respectively. In addition, the values for the t1/2 in data set [4] (setting [10]) and in data set [4] (setting [12]) were 12 h and “around 10 hours”, respectively. Moreover, the “recurrence of parasitemia after treatment” value in data set [5] (6 months following the treatment) is given as “no further occurrence was observed in the 6 months following the treatment”. Besides, the “blood parasitemia after treatment” value in data set [5] (parasitemia 1% or 6% at start, im 2 mg/kg, 2 injections per day, 8 days) is listed as “completely eliminated”.

As to `CCCSSC(CCO)=C(C)N(C=O)CCCCCCCCCCCCN(C=O)C(C)=C(CCO)SSCCC` [TS3b, N,N′-diformyl-N,N′-di[1-methyl-2-propyl-dithio-4-hydroxybut-1-enyl]-1,12-diaminododecane], the results for the IC50 in data set [1] (Plasmodium falciparum), in data set [7] and in data set [8] were 1.3 nM, under 20 nM and under 20 nM, respectively. In addition, in data set [2], the “Oral absorption index (LD50 po/LD50 ip ratio, acute)” value is given as 6.7. Moreover, the LD50 at 4 days in data set [2] (ip, infected mice, ip, read-out: In vivo LD50 (mg/kg) semi-chronic in mice infected with malaria) was found to be 32 mg/kg; in data set [2] (ip, TE4c value corresponds to death of only 25% of the mice, read-out: In vivo LD50 (mg/kg) (mouse) semi-chronic), 90 mg/kg; in data set [2] (po, read-out: In vivo LD50 (mg/kg) (mouse) semi-chronic), 410 mg/kg. Moreover, the LD50 in data set [2] (ip) was 240 mg/kg; in data set [2] (po), 1600 mg/kg. Moreover, the ED50 in data set [3] (ip) was about 7 mg/kg; in data set [3] (po), about 180 mg/kg. In data set [6], the “time of first serum level peak” value is recorded as “in less than two hours”.
